The text below walks through data of publication PMC6332220, “Synthesis, Characterization and Biological Evaluation of Some Quinoxaline Derivatives: A Promising and Potent New Class of Antitumor and Antimicrobial Agents” (Molecules, 2015).

Holding throughout (type): cell-based
Assay [1] relates to A. fumigatus and C. albicans. The experiment in a line: MIC by broth dilution, summary over A. fumigatus and C. albicans. The settings on record: range over both fungi. The method, then: (§1) The disk diffusion method was used for determination of the antimicrobial activity using ampicillin, gentamicin and amphotericin B as reference drugs. The results were recorded for each compounds as the average diameter as inhibition zones (IZ) of bacterial or fungal growth around the discs in mm as shown in Table 2.
(§2) In this study, MIC (quantitative method) was used for evaluation of the antimicrobial activity of tested compounds. Screening was evaluated in vitro using the Broth dilution method according to CLSI [45]. All the bacteria were incubated and activated at 30 °C for 24 h inoculation into nutrient broth and the fungi were incubated in malt extract broth for 48 h. The compounds were dissolved in DMSO and then diluted using […] Mueller-Hinton broth. […] In each case triplicate tests were performed and the average was taken as the final reading. The tubes were then inoculated with the test organisms, grown in their suitable broth at 37 °C for 24 h for tested microorganisms (1 × 10^8 CFU/mL for bacteria and 1 × 10^6 CFU/mL of fungi), each 5 mL received 0.1 mL of the above inoculum and incubated at 37 °C for 24 h.
On the technique in general: In broth dilution the organism is exposed to a series of concentrations in liquid medium.

Assay [2] deals with Gram positive and negative bacteria. Description: Disk diffusion, summary over bacterial strains. Particulars: range over bacterial strains as summarised in text. How it is done: as §1
Antimicrobial activities were carried out against highly pathogenic strains; three strains of Gram positive bacteria (Bacillus subtilis, Staphylococcus aureus and Streptococcus faecalis), four strains of Gram negative bacteria (Escherichia coli, Neisseria gonorrhoeae, Pseudomonas aeruginosa and Salmonella typhimurium) and three fungi strains (Aspergillus flavus, Aspergillus fumigatus and Candida albicans) isolated from primary agar plates. Antimicrobial activity of the tested samples was determined using a modified Kriby-Bauer disk diffusion method. Briefly, 100 µL of the test bacteria/fungi were grown in 10 mL of fresh media until they reached a count approximately 10^8 cells/mL for bacteria or 10^5 cells/mL for fungi. 100 µL of microbial suspension was spread onto agar plates corresponding to the broth in which they were maintained. […]
Background: A growth-free zone around the sample is the usual read-out of agar diffusion tests.

Assay [3] shares this test system. Description: MIC by broth dilution, summary over bacterial strains. The settings on record: range over bacterial strains as summarised in text. The method, then:
as §1, §2

With `Brc1ccc2nc(N3CCCCC3)c3nnnn3c2c1` [Compound 5a, 8-Bromo-4-(piperidin-1-yl)tetrazolo[1,5-a]quinoxaline], the “MIC range against A. fumigatus and C. albicans” value in assay [1] lay in the range of 0.98 to 62.5 µg/mL.

`Brc1ccc2nc(N3CCOCC3)c3nnnn3c2c1` [Compound 5b, 8-Bromo-4-(morpholin-4-yl)tetrazolo[1,5-a]quinoxaline]: the “MIC range against A. fumigatus and C. albicans” value in assay [1] lay within 0.98 to 62.5 µg/mL.

Turning to `NNc1nc2ccc(Br)cc2nc1NN` [Compound 9, 6-Bromo-2,3-dihydrazinylquinoxaline], the “MIC range against A. fumigatus and C. albicans” value in assay [1] is 0.98 to 62.5 µg/mL.

For the compound `NNc1nc2cc(Br)ccc2nc1Cl` [Compound 3, 6-Bromo-2-chloro-3-hydrazinylquinoxaline], the “IZ range against Gram positive and negative bacteria” value in assay [2] is reported as 13–15 mm. For the same compound, in assay [3], the “MIC range against Gram positive and negative bacteria” value lay within 0.98 to 125 µg/mL.
